{"source": "patent US5204352A", "about": "“Compounds exhibiting anti-parasitic activity and a method for their use” (The United States of America as represented by the …, priority 1987, dated 1993)", "key": {"in vivo": {"assay": "in vivo", "design": "species or system mice", "details": "mouse, sc", "experimental": "The preferred mode of administration of these compounds is subcutaneously. With subcutaneous administration, however, many of the compounds show lethal toxicity at very high dosage amounts. Thus, it is also possible to administer these compounds peritoneally. Compounds which are subcutaneously active are generally peritoneally active at higher doses. Further, none of the compounds administered peritoneally have shown lethal toxicity at dosages up to 400 mg/kg.\nThe compounds of the present invention were evaluated biologically in vivo with groups of 5 mice at various dose levels. Unless otherwise indicated, the data are for subcutaneous administration. Dose levels marked with an asterisk are for peritoneal administration in a HEC+T medium. In addition, Table 2 present results of peritoneal administration with substituted quanylhydrazones. The biological evaluation was done according to a standard protocol based on the method described by Rane et al., Amer. J. Trop. Med Hyg. 25:395 (1976)."}, "Trypanosoma rhodesiense [1]": {"tested_on": "Trypanosoma rhodesiense", "assay": "In vivo trypanocidal activity in infected mice (protocol based on Rane et al.)", "details": "subcutaneous", "method_in_brief": "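Groups of 5 mice dosed at various levels, subcutaneously unless marked; asterisked doses given intraperitoneally in HEC+T medium. Standard protocol per Rane et al. (1976).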"}, "Trypanosoma rhodesiense [2]": {"tested_on": "Trypanosoma rhodesiense", "details": "previously known bis-amidine and bis-guanylhydrazones; cited from earlier work"}}}
{"smiles": "Cc1ccc2n(c1)cc(-c1ccc(C=NNC3=NCCCN3)cc1)[n+]2C", "note": "[2-(3,4,5,6-tetrahydropyrimidyI)hydrazone of 1,6-dimethyl-2-(4'-formylphenyl)imidazo[1,2-a]-pyridinium bromide]", "values": [{"measurement": "MTD", "setting": "in vivo", "value": "~100", "unit": "mg/kg"}]}
{"smiles": "C[n+]1c(C=Cc2ccc(C=NNC(=N)N)cc2)cn2ccccc21", "note": "[BL09462]", "values": [{"measurement": "Increase in survival", "setting": "Trypanosoma rhodesiense [1]; 0.1 mg/kg", "value": 5.2, "unit": "days"}, {"measurement": "Trypanocidal activity, cures", "setting": "Trypanosoma rhodesiense [1]; 0.1 mg/kg", "value": "6/10"}, {"measurement": "Trypanocidal activity, cures", "setting": "Trypanosoma rhodesiense [1]; 0.2 mg/kg", "value": "5/5"}, {"measurement": "Trypanocidal activity, cures", "setting": "Trypanosoma rhodesiense [1]; 0.8 mg/kg", "value": "10/10"}]}
{"smiles": "Cn1c(COc2ccc(C=NNC3=NCCN3)cc2)[n+](C)c2ccccc21", "note": "[BL10018]", "values": [{"measurement": "Increase in survival", "setting": "Trypanosoma rhodesiense [1]; 0.4 mg/kg", "value": 6.8, "unit": "days"}, {"measurement": "Trypanocidal activity, cures", "setting": "Trypanosoma rhodesiense [1]; 0.4 mg/kg", "value": "3/5"}, {"measurement": "Trypanocidal activity, cures", "setting": "Trypanosoma rhodesiense [1]; 1.6 mg/kg", "value": "10/10"}, {"measurement": "Trypanocidal activity, cures", "setting": "Trypanosoma rhodesiense [1]; 6.6 mg/kg", "value": "5/5"}]}
{"smiles": "C[n+]1cccc(COc2ccc(C=NNC(=N)N3CCCC3)cc2)c1", "note": "[BL10027]", "values": [{"measurement": "Increase in survival", "setting": "Trypanosoma rhodesiense [1]; 0.8 mg/kg", "value": 5.2, "unit": "days"}, {"measurement": "Trypanocidal activity, cures", "setting": "Trypanosoma rhodesiense [1]; 0.8 mg/kg", "value": "7/10"}, {"measurement": "Trypanocidal activity, cures", "setting": "Trypanosoma rhodesiense [1]; 3.3 mg/kg", "value": "5/5"}, {"measurement": "Trypanocidal activity, cures", "setting": "Trypanosoma rhodesiense [1]; 13 mg/kg", "value": "5/5"}]}
{"smiles": "C[n+]1c(C=Cc2ccc(C=NNC3=NCCCN3)cc2)cn2ccccc21", "note": "[BL11202]", "values": [{"measurement": "Trypanocidal activity, cures", "setting": "Trypanosoma rhodesiense [1]; 0.4 mg/kg", "value": "5/5"}, {"measurement": "Increase in survival", "setting": "Trypanosoma rhodesiense [1]; 1.6 mg/kg", "value": 6.8, "unit": "days"}, {"measurement": "Trypanocidal activity, cures", "setting": "Trypanosoma rhodesiense [1]; 1.6 mg/kg", "value": "9/10"}, {"measurement": "Trypanocidal activity, cures", "setting": "Trypanosoma rhodesiense [1]; 6.6 mg/kg", "value": "5/5"}, {"measurement": "Trypanocidal activity, cures", "setting": "Trypanosoma rhodesiense [1]; 26 mg/kg", "value": "15/15"}]}
{"smiles": "C[n+]1ccc(COc2ccc(C=NNC3=NCCN3)cc2)cc1", "note": "[BL12129]", "values": [{"measurement": "Increase in survival", "setting": "Trypanosoma rhodesiense [1]; 3.3 mg/kg", "value": 6.8, "unit": "days"}, {"measurement": "Trypanocidal activity, cures", "setting": "Trypanosoma rhodesiense [1]; 3.3 mg/kg", "value": "1/5"}, {"measurement": "Increase in survival", "setting": "Trypanosoma rhodesiense [1]; 13 mg/kg", "value": 5.0, "unit": "days"}, {"measurement": "Trypanocidal activity, cures", "setting": "Trypanosoma rhodesiense [1]; 13 mg/kg", "value": "8/10"}]}
{"smiles": "C[n+]1c(C=Cc2ccc(C=NNC(=N)N3CCCC3)cc2)cn2ccccc21", "note": "[BL12165]", "values": [{"measurement": "Increase in survival", "setting": "Trypanosoma rhodesiense [1]; 1.6 mg/kg", "value": 5.2, "unit": "days"}, {"measurement": "Trypanocidal activity, cures", "setting": "Trypanosoma rhodesiense [1]; 1.6 mg/kg", "value": "6/10"}, {"measurement": "Increase in survival", "setting": "Trypanosoma rhodesiense [1]; 3.3 mg/kg", "value": 12.3, "unit": "days"}, {"measurement": "Trypanocidal activity, cures", "setting": "Trypanosoma rhodesiense [1]; 3.3 mg/kg", "value": "2/5"}, {"measurement": "Trypanocidal activity, cures", "setting": "Trypanosoma rhodesiense [1]; 13 mg/kg", "value": "10/10"}, {"measurement": "Trypanocidal activity, cures", "setting": "Trypanosoma rhodesiense [1]; 26 mg/kg", "value": "15/15"}]}
{"smiles": "Cn1cc[n+](C)c1C=Cc1ccc(C=NNC2=NCCCN2)cc1", "note": "[BL21584]", "values": [{"measurement": "Trypanocidal activity, cures", "setting": "Trypanosoma rhodesiense [1]; 6.6 mg/kg", "value": "5/5"}, {"measurement": "Trypanocidal activity, cures", "setting": "Trypanosoma rhodesiense [1]; 13 mg/kg", "value": "10/10"}]}
{"smiles": "CCN=C(NCC)NN=Cc1ccc(OCc2n(C)cc[n+]2C)cc1", "note": "[BL28038]", "values": [{"measurement": "Trypanocidal activity, cures", "setting": "Trypanosoma rhodesiense [1]; 13 mg/kg", "value": "3/5"}]}
{"smiles": "N=C(N)c1ccc(-c2cc3ccc(C(=N)N)cc3[nH]2)cc1", "note": "[DAPI, 2-phenylindole-5-4'-bis-carboxamidine]", "values": [{"measurement": "Trypanocidal activity", "setting": "Trypanosoma rhodesiense [2]", "value": "show trypanocidal activity"}]}
{"smiles": "N=C(N)c1cccc(NC(=O)Nc2cccc(C(=N)N)c2)c1", "note": "[aminocarbilide]", "values": [{"measurement": "Trypanocidal activity", "setting": "Trypanosoma rhodesiense [2]", "value": "show trypanocidal activity"}]}
{"smiles": "N=C(N)c1ccc(N=NNc2ccc(C(=N)N)cc2)cc1", "note": "[berenil]", "values": [{"measurement": "Trypanocidal activity", "setting": "Trypanosoma rhodesiense [2]", "value": "show trypanocidal activity"}]}
{"smiles": "CC(=NNC(=N)N)c1cccc(C(C)=NNC(=N)N)c1", "note": "[m-diacetylbenzene-bis-guanylhydrazone]", "values": [{"measurement": "Trypanocidal activity", "setting": "Trypanosoma rhodesiense [2]", "value": "show trypanocidal activity"}]}
{"smiles": "N=C(N)c1ccc(OCCCCCOc2ccc(C(=N)N)cc2)cc1", "note": "[pentamidine]", "values": [{"measurement": "Trypanocidal activity", "setting": "Trypanosoma rhodesiense [2]", "value": "show trypanocidal activity"}]}
